Measured values published in EP4691489A1, “GROWTH HORMONE SECRETION PROMOTER” (Scohia Pharma, Inc., priority 2023, dated 2024).
Each block holds one molecule with its values, some of them ahead of it.

Key:
SSTR 5 [1] = biological target: T1, SSTR 5 (Homo sapiens, UniProt P35346); assay: human SSTR5 antagonist activity using intracellular cAMP concentration as an indicator (HTRF); format: cell-based; set-up: expressed in transfected cells; conditions: 1 µM test compound; CHO (dhfr-) cells expressing human SSTR5; 0.1 nM somatostatin 28, 0.3 µM forskolin; read-out: inhibitory rate (%) against SSTR5 at 1 µM
T1 sequence (P35346 whole entry): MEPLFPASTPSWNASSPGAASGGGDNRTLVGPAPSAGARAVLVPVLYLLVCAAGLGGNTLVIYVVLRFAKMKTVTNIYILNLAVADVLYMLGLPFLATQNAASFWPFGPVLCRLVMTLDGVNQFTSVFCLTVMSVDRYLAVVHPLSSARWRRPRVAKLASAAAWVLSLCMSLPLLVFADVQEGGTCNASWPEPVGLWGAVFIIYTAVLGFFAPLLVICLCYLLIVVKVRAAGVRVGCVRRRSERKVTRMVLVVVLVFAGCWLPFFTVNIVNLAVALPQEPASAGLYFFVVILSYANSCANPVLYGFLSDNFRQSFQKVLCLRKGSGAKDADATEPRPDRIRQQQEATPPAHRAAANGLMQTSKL
Method: The intracellular cAMP concentration was measured using HTRF cAMP dynamic 2 kit (Cisbio). A test compound diluted with an assay buffer (5 mM HEPES (pH 7.5) (Invitrogen), 0.1% fatty-acid free BSA (Sigma), and 500 µM IBMX (Wako)-containing HBSS (Invitrogen)) was added at 2 µL/well to a 384-well white plate (Greiner) to a final concentration of 1 µM. Frozen stock of CHO (dhfr-) cells stably expressing the human SSTR5 gene (Accession No. NM_001053) was thawed in a thermostatic tank at 37°C and suspended in a passage medium (MEM alpha (Wako)) containing 10% dialyzed serum (Gemini) and 50 µg/mL gentamicin (Invitrogen). The cell suspension was centrifuged, and the cells were resuspended in an assay buffer, and added by 2 µL to each well at about 4,000 cells/well. The compound and the cells were incubated for 15 min, an assay buffer containing a final concentration 0.1 nM of somatostatin 28 (Toray Research Center) and 0.3 µM forskolin (Wako) was added by 2 µL/well, and the cells were incubated at room temperature for 30 min. cAMP-d2 and anti-cAMP-cryptate were each added by 3 µL/well, allowed to stand at room temperature for 60 min, and the fluorescence resonance energy transfer (FRET) intensity was measured using the Multi-label reader Envision (Perkin Elmer). The FRET intensity of the wells to which the test compound group was added was converted into cAMP concentration by using a calibration curve created from the FRET intensities of well groups in which cAMP at any concentration was added to the assay buffer. The inhibitory activity of the compound was calculated using the following formula. Inhibitory activity(%) = (C−B)/(A−B) × 100 [formula] • A: cAMP concentration calculated from wells containing 0.3 µM forskolin • B: cAMP concentration calculated from wells containing 0.3 µM forskolin, 0.1 nM somatostatin 28 • C: cAMP concentration of wells containing 0.3 µM forskolin, 0.1 nM somatostatin 28, and 1 µM test compound

SSTR 5 [2] = biological target: T1, SSTR 5; assay: radiolabeled ligand binding assay, selectivity for human SSTR subtype; set-up: expressed in transfected cells; host or cells: CHO-K1 cells (membrane fraction)
Method: (§1) The selectivity of test compounds for human SSTR subtypes was investigated by radiolabeled ligand binding assay. The membrane fraction of CHO-K1 cells expressing human SSTR1-5 was suspended in am assay buffer (25 mM HEPES (pH 7.4), 5 mM MgCl2, 1 mM CaCl2, 10 µg/mL saponin, 0.5% fatty-acid free BSA) and incubated for 1 hr in the presence of 1 µM test compound 1 and [^125I] Tyr^11-somatostatin 14 (Perkin Elmer). Thereafter, the solution containing the membrane fraction was transferred onto a filter plate, and after washing the filter six times with a wash buffer (25 mM HEPES, 5 mM MgCl2, 1 mM CaCl2), 50 µL of Microscint 20 (Packard) was added, and the radioactivity was measured using a TopCount (Perkin Elmer). The results of competitive activity of the test compound against the binding of the human SSTR subtypes with the labeled ligands are shown in Table 2.

SSTR 1 = biological target: T2, SSTR 1 (Homo sapiens, UniProt P30872); assay: as above; conditions: CHO-K1 membrane fraction, [125I] Tyr11-somatostatin 14, 1 µM compound
T2 construct: expressed in transfected cells; host or cells: CHO-K1 cells (membrane fraction)
T2 sequence (P30872 whole entry): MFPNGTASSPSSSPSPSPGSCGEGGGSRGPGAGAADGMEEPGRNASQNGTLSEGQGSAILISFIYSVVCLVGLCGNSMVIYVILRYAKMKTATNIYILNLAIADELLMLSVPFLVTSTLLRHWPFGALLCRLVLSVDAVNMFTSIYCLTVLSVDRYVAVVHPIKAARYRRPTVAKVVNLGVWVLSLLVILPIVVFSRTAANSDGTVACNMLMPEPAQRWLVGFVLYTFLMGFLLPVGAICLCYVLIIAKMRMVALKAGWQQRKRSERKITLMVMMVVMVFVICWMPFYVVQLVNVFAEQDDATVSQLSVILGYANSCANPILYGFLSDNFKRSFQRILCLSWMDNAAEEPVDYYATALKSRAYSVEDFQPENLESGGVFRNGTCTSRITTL
Method: as §1

SSTR 3 = biological target: T3, SSTR 3 (Homo sapiens, UniProt P32745); assay: as above; conditions: CHO-K1 membrane fraction, [125I] Tyr11-somatostatin 14, 1 µM compound
T3 construct: expressed in transfected cells; host or cells: CHO-K1 cells (membrane fraction)
T3 sequence (P32745 whole entry): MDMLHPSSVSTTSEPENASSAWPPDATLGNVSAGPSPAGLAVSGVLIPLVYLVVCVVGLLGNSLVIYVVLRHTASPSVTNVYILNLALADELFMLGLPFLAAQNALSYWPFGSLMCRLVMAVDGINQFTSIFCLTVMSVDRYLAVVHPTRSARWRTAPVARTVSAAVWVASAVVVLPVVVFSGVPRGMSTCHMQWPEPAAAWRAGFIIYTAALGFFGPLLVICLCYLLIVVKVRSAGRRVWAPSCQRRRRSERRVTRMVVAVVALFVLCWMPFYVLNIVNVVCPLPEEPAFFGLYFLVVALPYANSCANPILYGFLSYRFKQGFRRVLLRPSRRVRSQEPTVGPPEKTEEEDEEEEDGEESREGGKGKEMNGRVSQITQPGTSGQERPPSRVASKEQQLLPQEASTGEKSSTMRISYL
Method: as §1

SSTR 2 = biological target: T4, SSTR 2 (Homo sapiens, UniProt P30874); assay: as above; conditions: CHO-K1 membrane fraction, [125I] Tyr11-somatostatin 14, 1 µM compound
T4 construct: expressed in transfected cells; host or cells: CHO-K1 cells (membrane fraction)
T4 sequence (P30874 whole entry): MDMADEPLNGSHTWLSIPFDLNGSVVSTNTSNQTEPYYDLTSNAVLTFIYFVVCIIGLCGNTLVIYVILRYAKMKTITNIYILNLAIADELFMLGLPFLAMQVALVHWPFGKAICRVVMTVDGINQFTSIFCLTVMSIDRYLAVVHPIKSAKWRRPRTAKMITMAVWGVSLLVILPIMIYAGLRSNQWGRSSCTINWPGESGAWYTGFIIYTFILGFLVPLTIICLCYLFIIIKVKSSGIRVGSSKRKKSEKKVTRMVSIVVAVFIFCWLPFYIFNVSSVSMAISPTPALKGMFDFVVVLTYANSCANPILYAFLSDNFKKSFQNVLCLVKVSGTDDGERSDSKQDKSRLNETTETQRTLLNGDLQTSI
Method: as §1

SSTR 4 = biological target: T5, SSTR 4 (Homo sapiens, UniProt P31391); assay: as above; conditions: CHO-K1 membrane fraction, [125I] Tyr11-somatostatin 14, 1 µM compound
T5 construct: expressed in transfected cells; host or cells: CHO-K1 cells (membrane fraction)
T5 sequence (P31391 whole entry): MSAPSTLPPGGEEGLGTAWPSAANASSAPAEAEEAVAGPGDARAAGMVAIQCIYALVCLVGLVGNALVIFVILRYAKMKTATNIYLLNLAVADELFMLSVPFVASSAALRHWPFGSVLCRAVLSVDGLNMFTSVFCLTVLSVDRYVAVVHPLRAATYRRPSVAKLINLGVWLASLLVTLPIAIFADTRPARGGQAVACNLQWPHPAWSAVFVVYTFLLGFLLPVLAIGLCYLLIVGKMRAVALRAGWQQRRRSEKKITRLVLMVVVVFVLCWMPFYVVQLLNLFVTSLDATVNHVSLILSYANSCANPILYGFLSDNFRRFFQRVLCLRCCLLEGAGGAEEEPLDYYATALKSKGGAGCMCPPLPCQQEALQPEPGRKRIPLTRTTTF
Method: as §1

[3] = test system: healthy Japanese adult men; assay: Phase 1 single dose study, blood anterior pituitary hormone concentrations (ELISA); format: in vivo; conditions: human
Method: The examples in this section show the measurement results of blood anterior pituitary hormone concentrations using blood samples from a dose escalation study targeting healthy Japanese adult men, from A Randomized, Double-Blind, Placebo-Controlled, Phase 1 Study (jRCT2051210027) targeting healthy adults, which was conducted to examine the safety and tolerability, pharmacokinetics, and pharmacodynamic action of a single administration of test compound 1.
In a randomized, double-blind, placebo-controlled, parallel-group comparison, dose-escalation study consisting of 7 cohorts, a single dose of test compound 1 (1, 3, 10, 20, 40, 80 and 160 mg) or placebo was orally administered under fasting conditions. Eight test subjects (6 in the active drug group and 2 in the placebo group) participated in each cohort. The concomitant use of all medications was prohibited from 28 days before hospitalization until discharge.
The test subjects were inspected and examined within 28-2 days and 1 day before administration of test compound 1, and eligibility was confirmed based on the above-mentioned inclusion criteria and exclusion criteria. […] They were fasted for 10 hr before administration and 4 hr after administration until lunch, and took lunch at 13:00 p.m. The blood was collected 0.5 hr before and 1, 2, 4, 6, 8, and 10 hr after administration of test compound 1.
The concentration of anterior pituitary hormone was measured using blood from the placebo administration group of all cohorts and the test subjects who received administration of 1 mg or 10 mg of test compound 1, at 0.5 hr before administration and 2, 4, 6, 8, and 10 hr after administration. The concentrations of growth hormone, follicle-stimulating hormone, luteinizing hormone, thyroid-stimulating hormone, adrenocorticotropic hormone, and prolactin in blood were measured using the Human Growth Hormone Quantikine ELISA Kit (manufactured by R&D Systems), Follicle-Stimulating Hormone (Human) ELISA Kit (manufactured by Cayman Chemical), Luteinizing Hormome (Human) ELISA Kit (manufactured by Cayman Chemical), U-TSH ELISA (manufactured by BIOCHECK), ACTH ELISA Kit (manufactured by MB Biosciences GmbH), and Human Prolactin Quantikine ELISA Kit (manufactured by R&D Systems) according to the protocol described in the package insert of each kit.

SMILES: CCOc1c(CN2CCC(N3CCc4nc(CC)c(C(=O)O)cc4C3=O)CC2)cc(C2CC2)c(-c2ccc(F)cc2)c1F [test compound 4, 6-(1-((6-cyclopropyl-3-ethoxy-2,4'-difluorobiphenyl-4-yl)methyl)piperidin-4-yl)-2-ethyl-5-oxo-5,6,7,8-tetrahydro-1,6-naphthyridine-3-carboxylic acid]
inhibition at 1 µM (SSTR 5 [1]): 95%

SMILES: Cc1c(C(=O)O)ccn(C2CCN(Cc3cc(C4CC4)c(-c4ccc(F)cc4)c(F)c3OC(C)C)CC2)c1=O [test compound 6, 1-(1-((6-cyclopropyl-2,4'-difluoro-3-isopropoxybiphenyl-4-yl)methyl)piperidin-4-yl)-3-methyl-2-oxo-1,2-dihydropyridine-4-carboxylic acid]
inhibition at 1 µM (SSTR 5 [1]): 99%

SMILES: CCOc1c(CN2CCC(n3ccc(C(=O)O)c(C)c3=O)CC2)cc(C2CC2)c(-c2ccc(F)cc2)c1F [test compound 7, 1-(1-((6-cyclopropyl-3-ethoxy-2,4'-difluorobiphenyl-4-yl)methyl)piperidin-4-yl)-3-methyl-2-oxo-1,2-dihydropyridine-4-carboxylic acid]
inhibition at 1 µM (SSTR 5 [1]): 87%

SMILES: CCOc1c(CN2CCC(n3ccc(C(=O)O)c(CC)c3=O)CC2)cc(C2CC2)c(-c2ccc(F)cc2)c1F [test compound 5, 1-(1-((6-cyclopropyl-3-ethoxy-2,4'-difluorobiphenyl-4-yl)methyl)piperidin-4-yl)-3-ethyl-2-oxo-1,2-dihydropyridine-4-carboxylic acid]
inhibition at 1 µM (SSTR 5 [1]): 87%

More lines, main results first:

inhibition at 1 µM (SSTR 5 [1]): 125%
SMILES: CCCc1nc2c(cc1C(=O)O)C(=O)N(C1CCN(Cc3cc(C4CC4)c(-c4ccc(F)cc4F)cc3OCC)CC1)CC2 [test compound 3, 6-(1-((2-cyclopropyl-5-ethoxy-2',4'-difluorobiphenyl-4-yl)methyl)piperidin-4-yl)-5-oxo-2-propyl-5,6,7,8-tetrahydro-1,6-naphthyridine-3-carboxylic acid]

inhibition at 1 µM (SSTR 5 [1]): 85%
SMILES: CCCc1nc2c(cc1C(=O)O)C(=O)N(C1CCN(Cc3cc(C4CC4)c(-c4ccc(F)cc4)c(F)c3OCC)CC1)CC2 [test compound 2, 6-(1-((6-cyclopropyl-3-ethoxy-2,4'-difluorobiphenyl-4-yl)methyl)piperidin-4-yl)-5-oxo-2-propyl-5,6,7,8-tetrahydro-1,6-naphthyridine-3-carboxylic acid]

labeled ligand binding rate (%) at 1 µM (SSTR 5 [2]; SSTR 5, CHO-K1 membrane fraction, [125I] Tyr11-somatostatin 14, 1 µM compound): 4.51% | selectivity among the human SSTR subtypes (SSTR 5 [2]; conclusion from Table 2, 1 µM): selectively binds to SSTR5 | labeled ligand binding rate (%) at 1 µM (SSTR 1): 105.83% | labeled ligand binding rate (%) at 1 µM (SSTR 3): 99.22% | labeled ligand binding rate (%) at 1 µM (SSTR 2): 100.31% | labeled ligand binding rate (%) at 1 µM (SSTR 4): 109.00% | inhibition at 1 µM (SSTR 5 [1]): 87%
SMILES: CCCc1nc2c(cc1C(=O)O)C(=O)N(C1CCN(Cc3cc(C4CC4)c(-c4ccc(F)cc4)cc3OCC)CC1)CC2 [test compound 1, 6-(1-((2-cyclopropyl-5-ethoxy-4'-fluorobiphenyl-4-yl)methyl)piperidin-4-yl)-5-oxo-2-propyl-5,6,7,8-tetrahydro-1,6-naphthyridine-3-carboxylic acid]
growth hormone secretion (blood growth hormone concentration) ([3]; single oral dose 1 mg and 10 mg, fasting, up to 10 hr after administration, Fig. 1): clearly enhance growth hormone secretion | secretion of follicle-stimulating hormone ([3]; single oral dose 1 mg and 10 mg, fasting, Fig. 2): did not substantially affect the secretion | secretion of luteinizing hormone ([3]; single oral dose 1 mg and 10 mg, fasting, Fig. 3): did not substantially affect the secretion | secretion of thyroid-stimulating hormone ([3]; single oral dose 1 mg and 10 mg, fasting, Fig. 4): did not substantially affect the secretion | secretion of adrenocorticotropic hormone ([3]; single oral dose 1 mg and 10 mg, fasting, Fig. 5): did not substantially affect the secretion | secretion of prolactin ([3]; single oral dose 1 mg and 10 mg, fasting, Fig. 6): did not substantially affect the secretion | increase in blood growth hormone concentration compared with growth hormone replacement therapy ([3]; compared with literature values for patients with pediatric growth hormone deficiency (J Clin Endocrinol Metab. 2017)): corresponds to the blood growth hormone concentration obtained by growth hormone replacement therapy
